# Reference: patent US10570131B2, “Heterocyclic compounds and their use in preventing or treating bacterial infections” (MUTABILIS, priority 2015, dated 2020)
# Structures can show the parent of a compound that is named as a salt.
# Columns and labels:
# Format in all cases: cell-based
# [1] = tested on: C. murliniae 210102; test: MIC of compounds alone, broth microdilution; conditions: strain 210102 (VIM-4); read-out: MIC compounds of the invention alone
# Outline: (§1)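 Broth microdilution MIC with compound alone or combined with ceftazidime against genotyped strains. Inoculum 5×10^5 cfu/mL in cation-adjusted Mueller-Hinton broth, 16-20 h at 35° C in ambient air. MIC = lowest concentration preventing visible growth.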
# [2] = tested on: E. cloacae 260508; test: MIC of compounds alone, broth microdilution; conditions: Enterobacter cloacae, 260508, read-out: MIC compounds of the invention alone
# Outline: as §1
# [3] = tested on: E. cloacae UFR38; test: MIC of compounds alone, broth microdilution; conditions: Enterobacter cloacae; strain UFR38 (CTX-M-15, NDM-1); read-out: MIC compounds of the invention alone
# Outline: as §1
# [4] = tested on: E. cloacae UFR70; test: MIC of compounds alone, broth microdilution; conditions: Enterobacter cloacae, UFR70, read-out: MIC compounds of the invention alone
# Outline: as §1
# [5] = tested on: E. cloacae UFR85; test: MIC of compounds alone, broth microdilution; conditions: Enterobacter cloacae, UFR85, read-out: MIC compounds of the invention alone
# Outline: as §1
# [6] = tested on: E. coli UFR18; test: MIC of compounds alone, broth microdilution; conditions: Escherichia coli; strain UFR18 (CTX-M-15, OXA-204); read-out: MIC compounds of the invention alone
# Outline: as §1
# [7] = tested on: E. coli UFR32; test: MIC of compounds alone, broth microdilution; conditions: Escherichia coli, UFR32, read-out: MIC compounds of the invention alone
# Outline: as §1
# [8] = tested on: E. coli UFR52; test: MIC of compounds alone, broth microdilution; conditions: Escherichia coli, UFR52, read-out: MIC compounds of the invention alone
# Outline: as §1
# [9] = tested on: E. coli UFR61O; test: MIC of compounds alone, broth microdilution; conditions: Escherichia coli, UFR61O, read-out: MIC compounds of the invention alone
# Outline: as §1
# [10] = tested on: E. coli UFR74; test: MIC of compounds alone, broth microdilution; conditions: Escherichia coli, UFR74, read-out: MIC compounds of the invention alone
# Outline: as §1
# [11] = tested on: K. oxytoca UFR21; test: MIC of compounds alone, broth microdilution; conditions: Klebsiella oxytoca, UFR21, read-out: MIC compounds of the invention alone
# Outline: as §1
# [12] = tested on: K. pneumoniae 160143; test: MIC of compounds alone, broth microdilution; conditions: Klebsiella pneumoniae, 160143, read-out: MIC compounds of the invention alone
# Outline: as §1
# [13] = tested on: K. pneumoniae 200047; test: MIC of compounds alone, broth microdilution; conditions: Klebsiella pneumoniae, 200047, read-out: MIC compounds of the invention alone
# Outline: as §1
# [14] = tested on: K. pneumoniae UFR24; test: MIC of compounds alone, broth microdilution; conditions: Klebsiella pneumoniae, UFR24, read-out: MIC compounds of the invention alone
# Outline: as §1
# [15] = tested on: K. pneumoniae UFR68; test: MIC of compounds alone, broth microdilution; conditions: Klebsiella pneumoniae, UFR68, read-out: MIC compounds of the invention alone
# Outline: as §1
# [16] = tested on: K. pneumoniae UFR77; test: MIC of compounds alone, broth microdilution; conditions: Klebsiella pneumoniae; strain UFR77 (CMY-2); read-out: MIC compounds of the invention alone
# Outline: as §1
# [17] = tested on: P. aeruginosa UFR35; test: MIC of compounds alone, broth microdilution; conditions: Pseudomonas aeruginosa; strain UFR35 (OXA-23); read-out: MIC compounds of the invention alone
# Outline: as §1
# [18] = tested on: P. aeruginosa UFR47; test: MIC of compounds alone, broth microdilution; conditions: Pseudomonas aeruginosa; strain UFR47 (VIM-1); read-out: MIC compounds of the invention alone
# Outline: as §1
# [19] = tested on: P. aeruginosa UFR48; test: MIC of compounds alone, broth microdilution; conditions: Pseudomonas aeruginosa; strain UFR48 (VIM-2); read-out: MIC compounds of the invention alone
# Outline: as §1
# [20] = tested on: P. aeruginosa UFR59; test: MIC of compounds alone, broth microdilution; conditions: Pseudomonas aeruginosa; strain UFR59 (IMP-29); read-out: MIC compounds of the invention alone
# Outline: as §1
# [21] = tested on: P. aeruginosa UFR90; test: MIC of compounds alone, broth microdilution; conditions: Pseudomonas aeruginosa, UFR90, read-out: MIC compounds of the invention alone
# Outline: as §1
# [22] = tested on: P. aeruginosa UFR92; test: MIC of compounds alone, broth microdilution; conditions: Pseudomonas aeruginosa, UFR92, read-out: MIC compounds of the invention alone
# Outline: as §1
# [23] = tested on: P. aeruginosa UFR93; test: MIC of compounds alone, broth microdilution; conditions: Pseudomonas aeruginosa, UFR93, read-out: MIC compounds of the invention alone
# Outline: as §1
# [24] = tested on: P. aeruginosa UFR92; test: MIC of ceftazidime alone and in combination with compounds (synergy), broth microdilution; conditions: MIC of ceftazidime with compound fixed at 4 μg/mL; strain UFR92 (derepressed AmpC, OprD−)
# Outline: as §1
# [25] = tested on: E. cloacae UFR38; test: as above; conditions: MIC of ceftazidime with compound fixed at 4 μg/mL; strain UFR38 (CTX-M-15, NDM-1)
# [26] = tested on: C. murliniae 210102; test: as above; conditions: MIC of ceftazidime with compound fixed at 4 μg/mL; strain 210102 (VIM-4)
# [27] = tested on: E. coli UFR52; test: as above; conditions: MIC of ceftazidime with compound fixed at 4 μg/mL; strain UFR52 (TEM-1, SHV-12, IMP-8)
# [28] = tested on: P. aeruginosa UFR93; test: as above; conditions: MIC of ceftazidime with compound fixed at 4 μg/mL; strain UFR93 (derepressed AmpC, OprD−, MexAB+, MexXY+)
# [29] = tested on: P. aeruginosa UFR47; test: as above; conditions: MIC of ceftazidime with compound fixed at 4 μg/mL; strain UFR47 (VIM-1)
# [30] = tested on: P. aeruginosa UFR59; test: as above; conditions: MIC of ceftazidime with compound fixed at 4 μg/mL; strain UFR59 (IMP-29)
SMILES,MIC [1] [µg/mL],MIC [2] [µg/mL],MIC [3] [µg/mL],MIC [4] [µg/mL],MIC [5] [µg/mL],MIC [6] [µg/mL],MIC [7] [µg/mL],MIC [8] [µg/mL],MIC [9] [µg/mL],MIC [10] [µg/mL],MIC [11] [µg/mL],MIC [12] [µg/mL],MIC [13] [µg/mL],MIC [14] [µg/mL],MIC [15] [µg/mL],MIC [16] [µg/mL],MIC [17] [µg/mL],MIC [18] [µg/mL],MIC [19] [µg/mL],MIC [20] [µg/mL],also measured
"NC[C@@H]1CC(=NOCC(N)=O)[C@@H]2CN1C(=O)N2OS(=O)(=O)O (mixture of isomers) [Example 5, sodium and 2,2,2-trifluroacetate [(2S,5S)-4-(2-amino-2-oxo-ethoxy)imino-2-(azaniumylmethyl)-7-oxo-1,6-diazabicyclo[3.2.1]octan-6-yl] sulfate]",> 32,32,0.125,> 32,> 32,0.25,1,8,0.5,> 32,> 32,> 32,> 32,> 32,> 32,> 32,1,2,2,4,"MIC [21]: 1 µg/mL; MIC [22]: 2 µg/mL; MIC [23]: 4 µg/mL; MIC, combination of CAZ and compounds of the invention at 4 μg/mL [24]: <0.25 µg/mL; MIC, combination of CAZ and compounds of the invention at 4 μg/mL [25]: <0.25 µg/mL; MIC, combination of CAZ and compounds of the invention at 4 μg/mL [26]: 1 µg/mL; MIC, combination of CAZ and compounds of the invention at 4 μg/mL [27]: ≤0.25 µg/mL; MIC, combination of CAZ and compounds of the invention at 4 μg/mL [28]: <0.25 µg/mL; MIC, combination of CAZ and compounds of the invention at 4 μg/mL [29]: <0.25 µg/mL; MIC, combination of CAZ and compounds of the invention at 4 μg/mL [30]: <0.25 µg/mL"
"NC[C@@H]1CC(=O)[C@@H]2CN1C(=O)N2OS(=O)(=O)O [Example 6, 2,2,2-trifluroacetate and sodium [(2S,5S)-2-(azaniumylmethyl)-4,7-dioxo-1,6-diazabicyclo[3.2.1]octan-6-yl] sulfate]",> 32,> 32,0.5,> 32,> 32,1,1,2,4,> 32,> 32,> 32,> 32,> 32,> 32,> 32,4,4,8,16,"MIC [21]: 4 µg/mL; MIC [22]: 4 µg/mL; MIC [23]: 8 µg/mL; MIC, combination of CAZ and compounds of the invention at 4 μg/mL [24]: ≤0.25 µg/mL; MIC, combination of CAZ and compounds of the invention at 4 μg/mL [25]: <0.25 µg/mL; MIC, combination of CAZ and compounds of the invention at 4 μg/mL [26]: 4 µg/mL; MIC, combination of CAZ and compounds of the invention at 4 μg/mL [27]: <0.25 µg/mL; MIC, combination of CAZ and compounds of the invention at 4 μg/mL [28]: 0.5 µg/mL; MIC, combination of CAZ and compounds of the invention at 4 μg/mL [29]: ≤0.25 µg/mL; MIC, combination of CAZ and compounds of the invention at 4 μg/mL [30]: ≤0.25 µg/mL"
